For test [1], the system named is Caco-2 cells. Put plainly: Confocal Ca2+ fluorescence microscopy (Fluo-8). The test is classed as cell-based. The protocol: Caco-2 cells are obtained from ATTC and cultured in Dulbecoo's modified Eagle's medium supplemented with 10% fetal calf serum (FCS) and 1% nonessential amino acids at 37° C. and 5% CO2. Caco-2 cells are passaged for 20-25 times and are seeded (2×10^5 cells/dish) on 5 cm petri-dishes and grown until 80% confluence, when the FCS concentration is changed to 5%. Cells are grown for another 10 days before they are used for functional studies.
Caco2 cells grown in 25 mm round coverslips are mounted on the bath chamber RC-21BR attached to series 20 stage adapter (Warner Instruments, CT USA). The cells are maintained at 37° C. using a single channel table top heater controller (TC-324B, Warner Instruments, CT USA). Cells are loaded with the fluorescent calcium indicator Fluo-8 AM dye (Cat #0203, TEFLab, Inc., Austin, Tex. USA) at 0.5 μM concentration at room temperature and incubated for 45 minutes. Confocal laser scanning microscopy is performed using an inverted Fluoview 1000 IX81 microscope (Olympus, Tokyo, Japan) and a U Plan S-Apo 20× objective. Fluorescence is recorded by argon lasers with excitation at 488 nm and emission at 515 nm. The Fluorescent images are collected with scanning confocal microscope. […] Changes are recorded and fluorescence is measured for various cells. […]

Another test deals with ileal mucosa. The format is cell-based, mouse. From the text:
Normally fed, 8-week-old, male NIH Swiss mice are sacrificed by CO2 inhalation, followed by cervical dislocation. The small intestine is gently removed, and the segment is washed and flushed in ice-cold Ringer's solution. Then the mucosa is separated from the serosa and the muscular layers by stripping through the submucosal plane as previously described (Zhang et al. (2007) J Physiol 581(3):1221-1233). Following exsanguinations, ileal mucosa is obtained from a 10 cm segment close to the caecum. All experiments are approved by the University of Florida Institutional Animal Care and Use Committee.
Ion transport studies are performed on ileal sheets. Tissues are then mounted in between the two halves of an Ussing type-Lucite chamber with 0.3 cm^2 exposed surface areas (P2304, Physiologic Instruments, San Diego, Calif., USA). Regular Ringer's solution (115 mM NaCl, 25 mM NaHCO3, 4.8 mM K2HPO4, 2.4 mM KH2PO4, 1.2 mM MgCl2 and 1.2 mM CaCl2) bubbled with 95% O2: 5% CO2 is used bilaterally as bathing solution for the tissues and the temperature is maintained constant at 37° C. The chambers are balanced to eliminate osmotic and hydrostatic forces. Resistance due to fluid is also compensated. The tissues are allowed to stabilize. The basal short-circuit current (Isc) and the corresponding conductance (G) are recorded using a computer controlled voltage/current clamp device (VCC MC-8, Physiologic Instruments).
The tissues are incubated with H-89 for 30 minutes. Increasing concentrations of glucose (0.015-8 mM) are added every 5 minutes and the peak current is noted. Saturation kinetic constant is calculated for the corresponding Km and Vmax for treated and untreated tissues.

Another test relates to chloride secretion. Put plainly: Chloride secretion with NSP4 peptide and glucose (FIG. 7). The format is cell-based.
Test [2] has as its system Caco-2 cells. Put plainly: Gramicidin perforated whole cell currents (patch clamp). The format is cell-based. On the set-up: dose or concentration left out as unconfirmed. The settings on record: in the continued presence of glucose. On the technique in general: In patch-clamp work, channel activity is measured electrically.
The next test relates to NFA-sensitive current. Put plainly: Isc with NSP4 peptide and glucose (FIG. 6). The format is cell-based.
Test [3] deals with Caco-2 cells. Put plainly: Ussing chamber Isc in Caco-2 cells grown on permeable inserts. The test is classed as cell-based. The settings on record: added to the apical side of Caco-2 cells. The protocol:
Caco-2 cells are obtained from ATTC and cultured in Dulbecoo's modified Eagle's medium supplemented with 10% fetal calf serum (FCS) and 1% nonessential amino acids at 37° C. and 5% CO2. […] Cells are grown for another 10 days before they are used for functional studies.

The subject of a further test is small intestine cells. Put plainly: Glucose-induced HCO3- secretion in small intestine cells. The test is classed as cell-based. Also noted: dose or concentration left out as unconfirmed.

For the compound `O=C(O)CN(CC(=O)O)c1ccccc1OCCOc1ccccc1N(CC(=O)O)CC(=O)O` [BAPTA], in the test with Caco-2 cells [1] (pre-incubating the cells 45 minutes with BAPTA), the “glucose-stimulated increase in intracellular Ca^2+ after pre-incubation” value is “fails to show a glucose-stimulated increase”.
`O=S(=O)(NCCNC/C=C/c1ccc(Br)cc1)c1cccc2cnccc12` [H89, H-89]: the “effect on glucose-stimulated net increase in Isc” value in the test on ileal mucosa (pre-treatment of small intestine cells with PKA inhibitor) was “significant reduction”.
In the case of `O=C(O)c1cccnc1Nc1cccc(C(F)(F)F)c1` [NFA, niflumic acid], the “inhibition of chloride secretion induced by NSP4 peptide and glucose” value with chloride secretion is “not completely inhibited”. Moreover, the “effect on glucose activated inward current” value with Caco-2 cells [2] is given as “inhibits the glucose activated inward current”. The “inhibition of glucose-stimulated increase in Isc” value in the test with ileal mucosa (100 μM to the lumen side, 8 mM glucose) is recorded as “partial inhibition”; in the test on Caco-2 cells [3] it was “significant inhibition”. In addition, in the test on NFA-sensitive current, the “inhibition of anion secretion induced by NSP4 peptide and glucose” value is given as “not completely inhibited”. For the same compound, in the test on NFA-sensitive current (NFA 100 μM), the “effect on NSP4114-135-stimulated current” value is on record as “abolishes”.
For the compound `O=C(O)c1cc([N+](=O)[O-])ccc1NCCCc1ccccc1` [NPPB], the “inhibition of glucose-induced, anion channel-mediated HCO3^− secretion” value in the test with small intestine cells (NPPB) is “significant inhibition”. In addition, the “glucose-induced, anion channel-mediated HCO3^− secretion” value in the test on small intestine cells (with NPPB) is recorded as 4.2±0.7 mEq·h^−1·cm^−2.
For orientation: Km means the substrate concentration at which the rate is half of its maximum. Take `CO[C@@H]([C@H](O)[C@H](O)CO)[C@@H](O)C=O` [3-OMG, 3-O-methylglucose]: the “intracellular Ca^2+ increase compared to similar concentration of glucose” value in the test with Caco-2 cells [1] is given as “little increase”. Also, in the test with ileal mucosa (increasing concentration added to lumen side, Michaelis-Menten fit, n=6 tissues), the “Vmax of Isc increase” value worked out at 1.9±0.13 μeq·h^−1·cm^−2. Besides, the Km with ileal mucosa (increasing concentration added to lumen side, Michaelis-Menten fit, n=6 tissues, read-out: Km of Isc increase) is 220 ± 70 µM.
In the case of `O=C(CCc1ccc(O)cc1)c1c(O)cc(O)cc1O[C@@H]1O[C@H](CO)[C@@H](O)[C@H](O)[C@H]1O` [phlorizin], in the test on ileal mucosa (tissues pre-treated with phlorizin), the “Isc response to increasing glucose in pre-treated tissues” value is reported as “no response to glucose”.

The values are drawn from US10086007B2, “Materials and methods for treatment of cystic fibrosis and for induction of ion secretion” (priority 2012, dated 2018).
